Where two headings read alike, the source gives them in different places.
Tests used:
[1] = 91-day once-daily latanoprost ointment, plasma PK after last dose in minipigs; type: in vivo; conditions: both sexes, topical or ocular, 0.5 % w/w; minipig, topical (percutaneous) latanoprost; first-order fit of 24, 48, 72 h plasma values; read-out: terminal elimination half-life
Protocol: A pharmacokinetic (PK) experiment was conducted on male and female minipigs (n=6 per sex). Ointment comprising latanoprost 0.5% w/w in a vehicle comprising petroleum jelly and isopropyl myristate was applied once daily for 91 days to skin over 10% of body surface area. After the last topical application, plasma PK was assessed by sampling all animals through 24 hours, and in 2 animals per sex over for an additional 48 hours.
(See Sjoquist B et al., The pharmacokinetics of a new antiglaucoma drug, latanoprost, in the rabbit, Drug Metabol […] 1998; 26:745-754; and Sjoquist B and Stjernschantz J, Ocular and systemic pharmacokinetics of latanoprost in humans, Surv Ophthalmol 2002; 47:S6-S12).

[2] = cited from earlier work
subcutaneous fat = assay: 42-day once-daily topical latanoprost trial in minipigs: reduction of subcutaneous fat (microscopy, ImageJ); type: in vivo; conditions: minipig, 42 days
Protocol: A randomized, placebo-controlled trial of topical latanoprost was conducted on male and female minipigs. Animals were randomized to no treatment, placebo (vehicle only), latanoprost 0.16%, or latanoprost 0.8% in an emulsion consisting essentially of water, poloxamer, lecithin, and isopropyl palmitate. The treatment was applied once daily to a 400 cm^2 area on the dorsum, with a semi-occlusive dressing. Treatment continued for 42 days.
Animals received a full panel of local and systemic safety assessments over the course of the study. Plasma toxicokinetics (TK) were assessed at various timepoints. After 42 days of treatment, animals were sacrificed. Samples of skin and subcutaneous fat were dissected from the treatment area in a controlled fashion and submitted for microscopic examination by a veterinary pathologist who was not informed of the compound tested or its therapeutic purpose.
Reduction of subcutaneous fat thickness was quantified using ImageJ software. In the high-dose group the mean reduction was 2.2 cubic centimeters of fat per 100 cm^2 of treated skin.

excess submental fat = assay: Randomized, double-blind, placebo-controlled trial of topical latanoprost on the submental area; type: in vivo, human; conditions: adults, submental skin 50 cm^2, applied at bedtime, washed after 8-10 hours, 42 days
Protocol: A randomized, double-blind, placebo-controlled trial of topical latanoprost applied to the submental area was conducted with adult men and women with excess submental fat. In one cohort, participants were randomized to receive latanoprost in an ethanol-based composition, or a matching placebo composition. In another cohort, participants were randomized to receive latanoprost in a petroleum jelly-based composition, or a matching placebo composition. The composition was applied at bedtime to a controlled 50 cm^2 area of submental skin. Participants were instructed to wash the 50 cm^2 area after 8-10 hours, so as to remove the composition. Treatment continued for 42 days.

[3] = tested on: lower lid steatoblepharon; assay: Randomized, double-masked, placebo-controlled trial of latanoprost ointment on lower eyelids (steatoblepharon); type: in vivo, human; conditions: adults, lower eyelids once nightly, washed after 8-10 hours, 10 weeks
Protocol: A randomized, double-masked, placebo-controlled trial of latanoprost ointment applied to lower eyelids was conducted with adult men and women with lower lid steatoblepharon, i.e., eye bags. Participants received a kit comprising a tube of latanoprost ointment and instructions to apply the topical composition to the lower eyelids once nightly at bedtime. Participants were instructed to wash the lower eyelids 8-10 hours after ointment application, so as to remove the ointment or residue thereof. Treatment continued for 10 weeks.

[4] = humans; cited from earlier work

Row | SMILES | half-life [1] [min] | half-life ([2]; after intravenous administration) [min] | half-life ([2]; after ocular administration) [min] | half-life ([2]; latanoprost administered intravenously or ophthalmically) [min] | subcutaneous fat on microscopic examination (subcutaneous fat; 0.16% and 0.8% once daily) | mean reduction of subcutaneous fat (subcutaneous fat; high-dose group) | tolerability (excess submental fat) | tolerability [3] | half-life in plasma [4]
1 | O=C(O)CCC/C=C\C[C@@H]1[C@@H](CC[C@@H](O)CCc2ccccc2)[C@H](O)C[C@@H]1O [latanoprost free acid] | 1080 to 1440 | 9 to 17 | 17 to 85 | 9 to 85 | – | – | – | – | –
2 | CC(C)OC(=O)CCC/C=C\C[C@@H]1[C@@H](CC[C@@H](O)CCc2ccccc2)[C@H](O)C[C@@H]1O [latanoprost] | – | – | – | – | Dose-dependent depletion of subcutaneous fat | 2.2 cubic centimeters of fat per 100 cm^2 of treated skin | well tolerated | well tolerated | about 17 minutes

Source: patent US10188661B2, “Topical dosage regimen” (Topokine Therapeutics, Inc., priority 2014, dated 2019)
